In US20090221523A1 (priority 2005, published 2009):
Values after ≈ are worked out from the molar mass of the structure shown. Values joined by “and” are separate entries in the source; they are usually repeats but may differ in a detail not shown here. Identical values can stand only once. Like-named read-outs stand apart in the source and are kept apart here. Marks after values point to notes of the source that are not given here.

Columns and labels:
HSV-1 strain F = test: microbe, parasite or virus in culture; format: cell-based, herpes simplex virus; conditions: Human alphaherpesvirus 1, HFF
HSV-1 TK− strain DM2.1 = test: microbe, parasite or virus in culture; format: cell-based, herpes simplex virus; conditions: Human alphaherpesvirus 1, HFF
[1] = system: CV strain delta crmA (TK+); test: microbe, parasite or virus in culture; format: cell-based; conditions: Cowpox virus, Vero, read-out: CV delta crmA EC50 (TK+)
[2] = system: CV strain TK:GFP lacZ (TK−); test: microbe, parasite or virus in culture; format: cell-based; conditions: Cowpox virus, Vero, read-out: CV TK:GFP lacZ EC50 (TK−)
in vitro = conditions: human
ΔcrmA (TK+) CV strain = test: microbe, parasite or virus in culture; format: cell-based; conditions: Cowpox virus, HFF, read-out: EC50 CV (Δcrm lacZ) TK+
[3] = system: TK:GFP lacZ (TK−) CV strain; test: microbe, parasite or virus in culture; format: cell-based; conditions: Cowpox virus, HFF, read-out: EC50 CV (TK:gpf lacZ)
[4] = system: vaccinia virus (Copenhagen Strain); test: microbe, parasite or virus in culture; format: cell-based; conditions: Orthopoxvirus vaccinia, HFF, read-out: Vaccinia (Copenhagen) EC50
[5] = system: cowpox virus (Brighton strain); test: microbe, parasite or virus in culture; format: cell-based; conditions: HFF, read-out: Cowpox (Brighton) EC50
[6] = system: vaccinia virus (Copenhagen Strain); test: microbe, parasite or virus in culture; format: cell-based
[7] = system: cowpox virus (Brighton strain); test: microbe, parasite or virus in culture; format: cell-based; conditions: HFF, read-out: CV (Brighton) EC50
HFF cells [8] = test: cells; format: cell-based; conditions: Homo sapiens, 72 h, read-out: IC50, 50% inhibition of cell proliferation
vaccinia IHD strain = system: vaccinia IHD strain; set-up: species or system BALB/c mice; conditions: mouse, in vivo
cowpox Brighton Strain [9] = system: cowpox Brighton Strain; set-up: species or system BALB/c mice; conditions: mouse, in vivo; for MDD, mean day of death / Mortality % / Mortality No. dead/total no.: ip
cowpox Brighton Strain [10] = system: cowpox Brighton Strain; set-up: species or system BALB/c mice; conditions: mouse, in vivo
vaccinia WR strain = system: vaccinia WR strain; set-up: species or system BALB/c mice; conditions: mouse, in vivo
vaccinia (WR strain) = system: vaccinia (WR strain); set-up: species or system mice; Mean Lung Virus Titer: unit not given here; conditions: mouse, in vivo
vaccinia (HID strain) = system: vaccinia (HID strain); set-up: species or system mice; Mean Lung Virus Titer: unit not given here; conditions: mouse, in vivo
WR strain of VV = test: microbe, parasite or virus in culture; format: cell-based; conditions: Orthopoxvirus vaccinia, HFF, 24 h, read-out: EC50 for inhibiting VV DNA synthesis
HSV-1 strain E377 = system: HSV-1 strain E377; set-up: species or system BALB/c mice; conditions: mouse, in vivo
VV strain WR = system: VV strain WR; set-up: species or system BALB/c mice; conditions: mouse, in vivo, ip
Epstein-Barr virus = test: microbe, parasite or virus in culture; format: cell-based; conditions: human gammaherpesvirus 4, read-out: EC50, inhibition of Epstein-Barr virus replication
human cytomegalovirus = format: cell-based
human herpesvirus 6 = format: cell-based; conditions: betaherpesvirus without TK activity
HFF cells [11] = conditions: human
[12] = mouse, in vivo
Human herpesvirus 8 = conditions: Zhu, et al. 2005; cited from earlier work
[13] = system: Cc1cn([C@H]2C[C@H](O)[C@@H](CO)O2)c(=O)[nH]c1=O; test: purified protein, by the assay type
[14] = read-out: HSV-1 DM2.1 EC50 (TK−)
[15] = read-out: EC50 HSV-1 (DM2.1) TK−

`O=c1[nH]c(=O)n([C@@H]2O[C@H](CO)[C@@H](O)[C@@H]2F)cc1I` [FIAU, fialuridine] showed an EC50 (HSV-1 strain F; read-out: HSV-1 F EC50 (TK+)) of 0.05 ± 0.03 µg/mL (≈ 0.134 µM), an EC50 (HSV-1 TK− strain DM2.1; [14]) of 3.9 ± 3.3 µg/mL (≈ 10.5 µM) and an EC50 [1] of 14 ± 7 µg/mL (≈ 37.6 µM). For the same molecule, the EC50 [2] was 19 ± 6.7 µg/mL (≈ 51.1 µM) and the CC50 (in vitro) was > 100 µg/mL.

In the case of `O=c1[nH]c(=O)n([C@H]2C[C@H](O)[C@@H](CO)O2)cc1F` [FdU, 5-fluorodeoxyuridine], the EC50 (HSV-1 strain F; read-out: HSV-1 F EC50 (TK+)) is reported as 2.5 ± 1.7 µg/mL (≈ 10.2 µM), the EC50 (HSV-1 TK− strain DM2.1; [14]) is reported as 4.5 ± 3.3 µg/mL (≈ 18.3 µM) and the EC50 [1] is reported as 0.37 µg/mL (≈ 1.5 µM). For the same molecule, the EC50 [2] was 0.37 µg/mL (≈ 1.5 µM) and the CC50 (in vitro) was 60 ± 0.7 µg/mL (≈ 244 µM).

Molecule `O=c1[nH]c(=O)n([C@H]2C[C@H](O)[C@@H](CO)O2)cc1I` [IDU, idoxuridine] has an EC50 (HSV-1 strain F; read-out: EC50 HSV-1 (F) TK+) of 2.1 ± 0.1 µg/mL (≈ 5.93 µM), an EC50 (HSV-1 strain F; read-out: HSV-1 F EC50 (TK+)) of 2.1 ± 0.1 µg/mL (≈ 5.93 µM) and an EC50 (HSV-1 TK− strain DM2.1; [15]) of 54 ± 8.1 µg/mL (≈ 152 µM). The EC50 (HSV-1 TK− strain DM2.1; [14]) was 54 ± 8.1 µg/mL (≈ 152 µM), the EC50 [1] was 2.2 ± 0.87 µg/mL (≈ 6.21 µM) and the EC50 [2] was 16 ± 9.3 µg/mL (≈ 45.2 µM). For the same molecule, the EC50 (ΔcrmA (TK+) CV strain) was 0.4 ± 0.18 µg/mL (≈ 1.13 µM), the EC50 [3] was 22 ± 9.3 µg/mL (≈ 62.1 µM) and the CC50 (in vitro) was > 100 µg/mL.

With `O=c1[nH]c(=O)n([C@H]2C[C@H](O)[C@@]3(CO)CC23)cc1Br` (stereo partly drawn) [N-MCBrU] the EC50 [4] was 0.6 µg/mL (≈ 1.89 µM), the EC50 [5] was 11.5 µg/mL (≈ 36.3 µM) and the CC50 (in vitro) was > 100 µg/mL.

In the case of `Cc1cn([C@H]2C[C@H](O)[C@]3(CO)C[C@H]23)c(=O)[nH]c1=O` [N-MCT, North-methanocarbathymidine], the EC50 [4] is reported as 0.73 µg/mL (≈ 2.89 µM), the EC50 [5] is reported as 0.31 µg/mL (≈ 1.23 µM) and the “VV (Copenhagen) EC50” value [6] is reported as 0.55 ± 0.13 µg/mL. It also gave an EC50 ([6]; Orthopoxvirus vaccinia, HFF, read-out: VV (Copenhagen) EC50) of 0.6 µg/mL (≈ 2.38 µM), an EC50 [7] of 1.5 ± 1.2 µg/mL (≈ 5.95 µM) and an IC50 (HFF cells [8]) of 29 ± 5.4 µg/mL (≈ 115 µM). The “Mean Day of Death” value (vaccinia IHD strain) was 8.7 days, the “Mortality Number” value (vaccinia IHD strain) was 0/15 and 3/15 and the Animals that survived (vaccinia IHD strain; 5.6 mg/kg) was 80%. For the same molecule, the “MDD, mean day of death” value (vaccinia IHD strain; ip, 5.6 mg/kg) was 8.7 days, the Mortality % (vaccinia IHD strain; ip, 5.6 mg/kg) was 20% and the “Mortality No. dead/total no.” value (vaccinia IHD strain; ip, 5.6 mg/kg) was 3/15. The Mortality % (vaccinia IHD strain; ip, 16.7 mg/kg) was 0%, the “Mortality No. dead/total no.” value (vaccinia IHD strain; ip, 16.7 mg/kg) was 0/15 and the Mortality % (vaccinia IHD strain; ip, 50 mg/kg) was 0%. For the same molecule, the “Mortality No. dead/total no.” value (vaccinia IHD strain; ip, 50 mg/kg) was 0/15, the “Mean Day of Death” value (cowpox Brighton Strain [9]) was 14.0 days and 7.5 days and 13.3 days and the “Mortality Number” value (cowpox Brighton Strain [9]) was 6/15 and 2/15 and 3/15. The “MDD, mean day of death” value (cowpox Brighton Strain [9]; 5.6 mg/kg) was 14.0 days, the Mortality % (cowpox Brighton Strain [9]; 5.6 mg/kg) was 40% and the “Mortality No. dead/total no.” value (cowpox Brighton Strain [9]; 5.6 mg/kg) was 6/15. The “MDD, mean day of death” value (cowpox Brighton Strain [9]; 16.7 mg/kg) was 13.3 days, the Mortality % (cowpox Brighton Strain [9]; 16.7 mg/kg) was 20% and the “Mortality No. dead/total no.” value (cowpox Brighton Strain [9]; 16.7 mg/kg) was 3/15. The “MDD, mean day of death” value (cowpox Brighton Strain [9]; 50 mg/kg) was 7.5 days, the Mortality % (cowpox Brighton Strain [9]; 50 mg/kg) was 13% and the “Mortality No. dead/total no.” value (cowpox Brighton Strain [9]; 50 mg/kg) was 2/15. The “Number of Survivors” value (cowpox Brighton Strain [10]) was 9/10 and 2/10 and 1/10, the “Number of Survivors” value (vaccinia WR strain) was 0/10 and the “MDD (mean day of death ± SD of mice that died prior to day 21)” value (vaccinia (WR strain)) was 8.3 ± 0.6 days and 11.2 ± 4.7 days. The “Mean Lung Virus Titer” value (vaccinia (WR strain)) was 7.9 ± 0.2 and 8.2 ± 0.1 and 8.3 ± 0.2, the Survivors/Total (vaccinia (WR strain)) was 7/10*** and 4/10* and 1/10 and the “MDD, mean day of death” value (vaccinia (HID strain)) was >21*** day. For the same molecule, the “Mean Lung Virus Titer” value (vaccinia (HID strain)) was 7.1 ± 0.3 and 8.1 ± 0.1 and 8.3 ± 0.1, the Survivors/Total (vaccinia (HID strain)) was 10/10*** and the EC50 (HSV-1 strain F; read-out: EC50 HSV-1 (F) TK+) was 0.07 ± 0.02 µg/mL (≈ 0.277 µM). For the same molecule, the EC50 (HSV-1 TK− strain DM2.1; [15]) was 6.3 ± 3.9 µg/mL (≈ 25 µM), the EC50 (ΔcrmA (TK+) CV strain) was 2 ± 2 µg/mL (≈ 7.93 µM) and the EC50 [3] was 28 ± 2.3 µg/mL (≈ 111 µM). The EC50 (WR strain of VV) was 1 µg/mL (≈ 3.96 µM), the “MDD, mean day of death” value (HSV-1 strain E377) was 20 days and the Mortality % (HSV-1 strain E377) was 0% and 7%. For the same molecule, the “Mortality No. dead/total no.” value (HSV-1 strain E377) was 0/15 and 1/15, the “MDD, mean day of death” value (VV strain WR; 5.6 mg/kg) was 8.2 days and the Mortality % (VV strain WR; 5.6 mg/kg) was 80%. The “Mortality No. dead/total no.” value (VV strain WR; 5.6 mg/kg) was 12/15, the “MDD, mean day of death” value (VV strain WR; 16.7 mg/kg) was 7.5 days and the Mortality % (VV strain WR; 16.7 mg/kg) was 13%. For the same molecule, the “Mortality No. dead/total no.” value (VV strain WR; 16.7 mg/kg) was 2/15, the Mortality % (VV strain WR; 50 mg/kg) was 0% and the “Mortality No. dead/total no.” value (VV strain WR; 50 mg/kg) was 0/15. The EC50 (Epstein-Barr virus) was 0.45 µg/mL (≈ 1.78 µM), the “Activity against human cytomegalovirus” value (human cytomegalovirus) was “inactive” and the “Activity against human herpesvirus 6” value (human herpesvirus 6) was “inactive”. For the same molecule, the CC50 (HFF cells [11]) was >100 ± 0 µg/mL, the Tolerability in mice [12] was “well tolerated” and the “Sensitivity of human herpesvirus 8 to the drug” value (Human herpesvirus 8) was “sensitive”. For the same molecule, the CC50 (in vitro) was > 100 µg/mL.

Molecule `O=c1[nH]c(=O)n([C@H]2C[C@H](O)[C@@H](CO)O2)cc1C(F)(F)F` [TFT, trifluridine] has an EC50 (HSV-1 strain F; read-out: HSV-1 F EC50 (TK+)) of 1 ± 0.2 µg/mL (≈ 3.38 µM), an EC50 (HSV-1 TK− strain DM2.1; [14]) of 1.1 ± 0.3 µg/mL (≈ 3.71 µM) and an EC50 [1] of 0.42 ± 0.33 µg/mL (≈ 1.42 µM). For the same molecule, the EC50 [2] was 0.72 ± 0.28 µg/mL (≈ 2.43 µM) and the CC50 (in vitro) was > 100 µg/mL.

With “purified VV TK (Vaccinia virus Copenhagen)” the Km [13] was 49 ± 7.6 µM and the Vmax [13] was 289 µM/min/mg.
